Experimental data reported in paper PMC9231362 (Viruses, 2022).

Molecular target: T1, catL (cathepsin L; rh catL) (Homo sapiens, UniProt P07711)
T1 construct: gene CTSL; incubated on ice 15 min in assay buffer pH 6.0 before use
Test: fluorogenic protease activity assay
Type: biochemical

T1 sequence (P07711 114-288): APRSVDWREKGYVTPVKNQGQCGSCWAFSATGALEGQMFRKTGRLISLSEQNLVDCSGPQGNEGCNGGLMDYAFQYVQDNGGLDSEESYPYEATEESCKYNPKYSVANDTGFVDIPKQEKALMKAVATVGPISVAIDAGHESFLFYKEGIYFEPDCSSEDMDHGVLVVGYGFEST
T1 sequence (P07711 292-333): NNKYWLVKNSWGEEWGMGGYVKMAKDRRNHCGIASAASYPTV

Row | SMILES | IC50 [µM]
1 | C[C@@H]1[C@H](O)[C@@H](C)/C=C/C=C/CC/C=C/C=C/C=C/C=C/[C@H](O[C@@H]2O[C@H](C)[C@@H](O)[C@H](N)[C@@H]2O)C[C@@H]2O[C@](O)(C[C@@H](O)[C@H](O)CC[C@@H](O)C[C@@H](O)C[C@@H](O)CC(=O)O[C@H]1C)C[C@H](O)[C@H]2C(=O)O [Nystatin] | ~2
2 | CO[C@H]1/C=C/O[C@@]2(C)Oc3c(C)c(O)c4c(O)c(c(/C=N/N5CCN(C6CCCC6)CC5)c(O)c4c3C2=O)NC(=O)/C(C)=C\C=C\[C@H](C)[C@H](O)[C@@H](C)[C@@H](O)[C@@H](C)[C@H](OC(C)=O)[C@@H]1C [Rifapentine] | ~30
